Legend:
total glutathione = experiment: Total glutathione levels in striatum of collagenase-infused ICH mice by HPLC; assay type: in vivo, mouse; details: ICH mice after NAC treatment
Description: (§1) Total glutathione levels were unchanged after NAC treatment in ICH mice. […] FIG. 29 illustrates an experimental design to study the effect of NAC on total glutathione levels in the striatum of a collagenase infusion mouse model of ICH.

ALOX5 = ALOX5 mRNA levels in hemin-treated primary cortical neurons (RT-PCR); assay type: cell-based, mouse; details: NAC 1 mM
Protocol: Quantitative real-time PCR: Total RNA was prepared using a NucleoSpin® RNA II kit. Duplex real-time PCR reactions were performed with gene expression assays using 6-carboxyfluorescein-labeled probes for ALOX5 (Mm 01182747_m1) and ALOX5AP (Mm 01218551_m1). Expression levels were normalized to β-actin gene expression levels, which were determined with a VIC™-labeled probe. All experiments were performed using a real-time PCR system.
The abilities of hemin and NAC to induce increases in ALOX5 and ALOX AP mRNA levels were examined. […] Consistent with the protein data (FIG. 17), hemin induced increases in ALOX AP and ALOX5 mRNA levels in a time-dependent manner.

Chac1 = Chac1 gene expression in ICH mice by quantitative RT-PCR; assay type: in vivo, mouse; details: ICH mice after NAC treatment
Description: as §1, with “ICH. […] FIG. 31 illustrates that ICH-induced ATF4 dependent Chac1 degraded glutathione to 5-oxoproline.” for “ICH.”

recombinant ALOX5 = biological target: T1, recombinant ALOX5 (Homo sapiens, UniProt P09917); experiment: Lipoxygenase UV/Vis-based IC50 assay with recombinant ALOX5; assay type: biochemical; details: test tube assay
T1 sequence (P09917 1-674): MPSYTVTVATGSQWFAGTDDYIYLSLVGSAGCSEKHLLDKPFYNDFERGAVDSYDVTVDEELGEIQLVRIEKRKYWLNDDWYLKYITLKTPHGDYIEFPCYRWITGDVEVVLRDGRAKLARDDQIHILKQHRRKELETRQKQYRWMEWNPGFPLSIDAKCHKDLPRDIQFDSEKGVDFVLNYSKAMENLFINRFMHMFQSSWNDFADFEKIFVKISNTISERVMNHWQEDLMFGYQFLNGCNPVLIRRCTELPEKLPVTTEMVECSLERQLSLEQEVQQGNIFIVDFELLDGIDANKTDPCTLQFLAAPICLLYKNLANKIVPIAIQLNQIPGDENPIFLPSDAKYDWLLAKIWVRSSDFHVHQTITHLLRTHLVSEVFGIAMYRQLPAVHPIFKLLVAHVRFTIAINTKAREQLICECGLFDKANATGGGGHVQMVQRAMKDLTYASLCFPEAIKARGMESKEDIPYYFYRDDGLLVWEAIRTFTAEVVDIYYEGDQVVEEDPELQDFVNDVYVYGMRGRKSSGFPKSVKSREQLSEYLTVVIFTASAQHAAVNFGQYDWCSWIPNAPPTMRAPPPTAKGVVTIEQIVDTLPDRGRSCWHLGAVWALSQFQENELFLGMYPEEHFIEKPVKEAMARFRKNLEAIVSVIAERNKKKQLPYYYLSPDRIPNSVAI
Protocol: Lipoxygenase UV/Vis-based IC50 assay: Inhibition potencies were determined by following the formation of conjugated diene products, 5-HpETE [ε=27000 M^−1 cm^−1 for AA turnover) at 234 nm using a UV/Vis spectrophotometer. All reaction mixtures were 2 mL in volume, and the reaction mixtures were constantly stirred using a magnetic stir bar at room temperature (23° C.). All reactions were carried out in a buffer containing 200 μM ATP and 10 μM AA. The AA concentration of a sample was verified by full turnover with soybean-1 lipoxygenase and quantifying the product concentration. Inhibitors were stored in DMSO at −20° C. Enzymatic reactions were initiated by adding approximately 100 nM-300 nM ammonium sulfate-precipitated wildtype enzyme. IC50 values were obtained by determining the enzymatic rate at a minimum of five inhibitor concentrations, plotting the enzymatic rate against inhibitor concentration, and performing a hyperbolic saturation curve fit. Inhibitor concentrations were assayed in duplicate or triplicate.
Significance was determined by two-way ANOVA and Bonferroni's post hoc test.

CC(=O)N[C@@H](CS)C(=O)O [NAC, N-acetylcysteine]
Total glutathione levels in striatum (total glutathione): unchanged
Hemin-induced ALOX5 expression (ALOX5): blocked the expression of ALOX5
ATF4-regulated Chac1 (Chac1): decreased after NAC treatment
Lesion volume and functional recovery (ICH model of rats; 40 mg/kg or 75 mg/kg, 2 h post-ICH): not effective in reducing lesion volume or improving functional recovery
Toxicity of higher doses (ICH model of rats; 300 mg/kg): caused significant toxicity in rats, including paralytic ileus and/or death
Highest dose tolerated without toxicity (ICH model of rats; ICH model): 40 mg/kg
Inhibition of ALOX5 activity (recombinant ALOX5): did not inhibit ALOX5 activity

Reference: patent publication US11963939B2, “Use of N-acetylcysteine to treat central nervous system disorders” (Neuronasal, Inc., priority 2017, dated 2024)
